Experimental data: article PMC10482691, “LTP induction by structural rather than enzymatic functions of CaMKII” (Nature, 2023)
Where “and” joins values, the source holds several entries; their conditions need not be identical. Equal values may be shown once. Read-outs that look alike come from different tables or passages of the source.

Legend:
[1] = target: purified CaMKIIα binding to GST–GluN2B-c WT (Homo sapiens, UniProt Q9UQM7); assay: CaMKII binding to immobilized GST–GluN2B-c in vitro; conditions: Ca2+/CaM, 1 mM ATP; GST–GluN2B-c WT
Method: CaMKII–GluN2B binding assays were done as described[9],[13],[25]. Briefly, GST–GluN2B-c tail (GST–2BC) was immobilized on anti-GST antibody-coated microtiter plates (Thermo Scientific), blocked for 30 min with 5% BSA and then overlaid with […] CaMKII (subunit concentration) in PIPES-buffered saline (pH 7.2) containing 2 mM Ca^2+, 1 μM CaM, 1 mM Mg^2+, 0.1% BSA and 0.1% Tween-20 for 20 min at room temperature. […] After extensive washes in buffer containing 1 mM EGTA, GST–2BC and bound CaMKII were eluted for 10 min in SDS loading buffer at 95 °C. Bound CaMKII was measured via immunoblot.

purified CaMKIIα [2] = assay: Km of CaMKII for ATP (GST-GluA1 S831 phosphorylation with increasing ATP); format: biochemical; conditions: 30 °C, 4 independent experiments, read-out: CaMKII Michaelis-Menten constant (Km) for ATP
Method: CaMKII-mediated phosphorylation of GluA1 S831 or GluN2B S1303 was measured by in vitro kinase reaction with a purified GST–GluA1 C-terminal tail or GST-GluN2B C-terminal tail. Reactions contained 40 nM CaMKII, 1 μM GST–GluA1, 50 mM PIPES, pH 7.1, 2 mM CaCl2, 10 mM MgCl2, 1 μM calmodulin, 1–4 mM ATP and 1 μM okadaic acid. Negative controls were prepared without ATP. Reactions were done at 30 °C for 20 s; reactions were stopped by adding SDS loading buffer and incubation in a boiling water bath for 5 min. GST, phospho-S831, CaMKII, phospho-T286 or phospho-S1303 were detected in the samples by immunoblot analysis. […]
Data are presented as mean values +/− SEM. a, Comparison of AS105 vs AS283 structure. b, Representative Immunoblots and quantification of in vitro kinase reactions at 30 °C with increasing ATP concentration measuring purified CaMKIIα phosphorylation of GST-GluA1 S831. […] Correlation indices before and after ionomycin-induced colocalization of GFP-CaMKII and mCherry-2BC under vehicle or 10 μM AS105 conditions (n = 23,18 cells; ***p < 0.001, RM two-way ANOVA with Šídák’s multiple comparisons test). Scale bar indicates 10 μm. […] CaMKII synaptic enrichment was measured before and after cLTP (n = 11,10 cells; *p < 0.05; RM two-way ANOVA with Šídák’s multiple comparisons test). […]

purified CaMKIIα [3] = test system: purified CaMKIIα; design: method as in PMID 29294328, PMID 8385100, PMID 19857459, PMID 14558884; conditions: read-out: previously published Km values for ATP; cited from earlier work
purified CaMKIIα [4] = assay: Km of CaMKII for ATP (GST-GluA1 S831 phosphorylation with increasing ATP); format: biochemical
[5] = test system: CA3–CA1 Schaffer collateral pathway LTP; design: method as in PMID 2549638; conditions: previous studies; cited from earlier work

Row | Structure (SMILES) | bound CaMKIIα (immunoblot, relative) [1] | Km (purified CaMKIIα [2]) [µM] | Km (purified CaMKIIα [3]) [µM] | CaMKIIα phosphorylation of GST-GluA1 S831 (relative) (purified CaMKIIα [4]; 1.5625 uM ATP) | CaMKIIα phosphorylation of GST-GluA1 S831 (relative) (purified CaMKIIα [4]; 25 uM ATP) | CaMKIIα phosphorylation of GST-GluA1 S831 (relative) (purified CaMKIIα [4]; 100 uM ATP) | CaMKIIα phosphorylation of GST-GluA1 S831 (relative) (purified CaMKIIα [4]; 200 uM ATP) | CaMKIIα phosphorylation of GST-GluA1 S831 (relative) (purified CaMKIIα [4]; 400 uM ATP) | effect on LTP [5]
1 | Nc1ncnc2c1ncn2[C@@H]1O[C@H](COP(=O)(O)OP(=O)(O)OP(=O)(O)O)[C@@H](O)[C@H]1O [ATP] | 4.397 and 5.355 and 6.655 and 4.688 | 33.3 | 8 to 127 | 0 | 0.594 and 0.4443 and 0.666 and 0.3478 | 0.9012 and 0.7992 and 1.006 and 0.6032 | 1.078 and 0.8135 and 1.004 and 0.7632 | 1.127 and 0.9367 (2×) | –
2 | CC1CNCCN1S(=O)(=O)c1cccc2cnccc12 (stereo not drawn) [H7] | – | – | – | – | – | – | – | – | LTP inhibition
